Assay results as given in US20140039008A1, “METHODS FOR THE ADMINISTRATION OF ILOPERIDONE” (VANDA PHARMACEUTICALS, INC., priority 2004, published 2014).

Legend:
[1] = Example 1: blood concentrations of P88 and P95 after iloperidone by CYP2D6 genotype, with and without inhibitor; type: in vivo, human; set-up: unit not given here; conditions: at Tmax of P88, without inhibitor
Source text: The research leading to the present invention was designed to examine the effect of different doses of iloperidone relative to the effect of ziprasidone and quetiapine on QTc duration under carefully controlled conditions. To further evaluate the possible relationship between exposure to iloperidone and the comparators to QTc duration, reassessment after pharmacological inhibition of the principle metabolic pathways for each drug, under steady-state conditions, was also planned.
Blood samples for pharmacogenetic analysis were collected at screening. Two polymorphisms previously associated with poor metabolizing status were genotyped in the CYP2D6 locus, and 251 genotypes were collected. The individual genotypes were studied for detection of association between genotype class and concentrations of iloperidone and its metabolites P88 and P95. The functional effect of the polymorphisms was also evaluated by analyzing the effect of the addition of the CYP2D6 inhibitor paroxetine on the concentrations of the parent drug and its metabolites.
The addition of metabolic inhibitors in this study therefore allowed for an evaluation of the effect of increasing blood-concentration of iloperidone and/or its metabolites on QT duration. More specifically, this study allowed for an evaluation of the effect of iloperidone on QTc before and after the addition of the CYP2D6 inhibitor, paroxetine, as well as before and after the addition of the CYP3A4 inhibitor, ketoconazole.
128 individuals consented to the pharmacogenetic study. Blood samples were collected according to the pharmacogenetics protocol and after the consent of patients. The DNA was extracted from whole blood by Covance using the PUREGENE DNA isolation kit (D-50K).
The 128 individuals that participated were a good representation of the total sample of 165 individuals that participated in the trial. 22 of 29 total were from the iloperidone 8 mg bid group, 30 of 34 were from the iloperidone 12 mg bid group, 22 of 31 from the 24 mg qd group, 3 of 5 of the risperidone group, 28 of 33 of the ziprazidone group, and 23 of 33 of the quetiapine group.
The genotype effect of the two CYP2D6 polymorphisms on period 1 concentrations was evaluated using the following ANOVA model. Concentrations of iloperidone, P88, and P95 at Period 1, without inhibitor, at the time at which maximum blood concentration of the parent compound or metabolite was reached (Tmax) were used as the dependent variable, the genotypes of each polymorphism as classes and the treatment as a covariate. In order to adjust for treatment effects after the single dose of iloperidone, the 8 mg bid was coded as 8, the 12 mg bid as 12 and the 24 mg qd as 24.
The function of these polymorphisms on the degree of inhibition of the CYP2D6 enzyme was calculated from the ratio of concentrations of P88 and P95 in period 2, after the addition of the inhibitor of CYP2D6. The concentrations of iloperidone and/or its metabolites (e.g., P88 and P95) may be determined in period 1 and/or period 2 by any known or later-developed method or device, including titration.
In order to understand the functional significance of the two CYP2D6 polymorphisms on the activity of the enzyme, the association of the various genotypes with the relative concentrations of the metabolites P88 and P95 were examined. It is known that P88 is degraded by CYP2D6 and that CYP2D6 is involved in the synthesis of P95. The relative amounts of P88 and P95 would therefore be controlled by the activity of the CYP2D6 enzyme. The ratio of P88/P95 was calculated before inhibition in Period 1 and at the Tmax of the two metabolites, as well as the ratio of P88/P95 in Period 2 after the addition of the CYP2D6 inhibitor paroxetine. In individuals with the wild type enzyme the concentration of P88 is expected to increase in Period 2, while in the same period the concentration of P95 is expected to decline.

[2] = interaction study: addition of CYP2D6 inhibitor fluoxetine, AUC; conditions: addition of CYP2D6 inhibitor fluoxetine along with iloperidone
HERG channel = HERG channel (Homo sapiens, UniProt Q12809); experiment: affinity for the HERG channel; type: binding
Sequence of HERG channel (Q12809 whole entry): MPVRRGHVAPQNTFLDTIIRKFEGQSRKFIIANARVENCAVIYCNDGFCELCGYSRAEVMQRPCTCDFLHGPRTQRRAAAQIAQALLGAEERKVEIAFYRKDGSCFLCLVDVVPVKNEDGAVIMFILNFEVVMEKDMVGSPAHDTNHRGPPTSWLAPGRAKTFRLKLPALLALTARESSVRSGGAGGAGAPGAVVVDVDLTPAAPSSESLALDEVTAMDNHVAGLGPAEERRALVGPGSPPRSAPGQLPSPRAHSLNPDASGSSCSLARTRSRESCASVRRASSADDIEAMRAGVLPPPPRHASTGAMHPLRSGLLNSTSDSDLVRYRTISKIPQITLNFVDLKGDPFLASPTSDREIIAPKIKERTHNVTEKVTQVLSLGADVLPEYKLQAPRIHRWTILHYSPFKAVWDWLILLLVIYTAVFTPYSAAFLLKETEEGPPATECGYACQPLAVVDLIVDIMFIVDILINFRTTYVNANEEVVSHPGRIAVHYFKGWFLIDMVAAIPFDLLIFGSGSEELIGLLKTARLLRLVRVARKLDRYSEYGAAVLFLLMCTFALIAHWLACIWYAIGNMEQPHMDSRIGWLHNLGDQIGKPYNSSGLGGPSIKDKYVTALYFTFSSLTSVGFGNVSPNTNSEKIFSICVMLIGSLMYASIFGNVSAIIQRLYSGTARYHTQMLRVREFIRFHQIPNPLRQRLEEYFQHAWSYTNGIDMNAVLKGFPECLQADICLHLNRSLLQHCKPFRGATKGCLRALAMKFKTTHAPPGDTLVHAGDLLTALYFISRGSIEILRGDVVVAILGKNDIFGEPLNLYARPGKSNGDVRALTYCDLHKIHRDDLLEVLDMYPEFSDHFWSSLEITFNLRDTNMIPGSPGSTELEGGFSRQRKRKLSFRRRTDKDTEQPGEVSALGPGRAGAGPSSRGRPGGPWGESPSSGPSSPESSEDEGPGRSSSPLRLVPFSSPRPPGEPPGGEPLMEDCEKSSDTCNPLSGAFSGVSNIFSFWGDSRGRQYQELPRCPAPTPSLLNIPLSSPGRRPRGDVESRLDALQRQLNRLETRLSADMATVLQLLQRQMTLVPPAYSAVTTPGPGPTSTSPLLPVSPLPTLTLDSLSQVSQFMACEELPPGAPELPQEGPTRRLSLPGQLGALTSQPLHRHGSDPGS

lipophilicity = type: physicochemical; conditions: compared to iloperidone

SMILES	P88 concentrations in Period 1, LSMeans ([1]; CYP2D6C100T CC)	P88 concentrations in Period 1, LSMeans ([1]; CYP2D6C100T CT)	P88 concentrations in Period 1, LSMeans ([1]; CYP2D6C100T TT)	P88 concentrations in Period 1, LSMeans ([1]; CYP2D6G1846A AA)	P88 concentrations in Period 1, LSMeans ([1]; CYP2D6G1846A AG)	P88 concentrations in Period 1, LSMeans ([1]; CYP2D6G1846A GG)	increase of the area under the curve (AUC) [2]	affinity for the HERG channel (HERG channel)	lipophilicity (lipophilicity)
COc1cc(C(C)O)ccc1OCCCN1CCC(c2noc3cc(F)ccc23)CC1 (stereo not drawn) [P88]	21.03	33.16	51.00	62.70	31.40	21.03	119%		
COc1cc(C(=O)O)ccc1OCCCN1CCC(c2noc3cc(F)ccc23)CC1 [P95]								very low affinity	less lipophilic
